“Also recorded” adds a separate entry of the source.
Columns and labels:
Format in all cases: cell-based
K19 expression = assay: K19 quantitative immunohistochemistry in organ-cultured human scalp hair follicles; details: human scalp HF organ culture; for number of K19-positive cells relative to control: cells in the ORS
Experimental: (§1) Normal human scalp skin was obtained from 6 women undergoing routine face-lift surgery after informed consent. All experiments were performed according to Helsinki guidelines, with appropriate ethics committee approval.
(§2) Normally pigmented anagen VI hair follicles (HFs) (grey/white HFs were excluded from the study) were microdissected from normal human scalp skin and organ cultured following the Philpott model. Compound A or vehicle was administered once for each change of medium (i.e. every 48 h/72 h).
A previously described protocol was used to investigate K19 expression (Kloepper et al., 2008). Briefly, acetone-fixed cryosections were pre-treated with goat serum (10% in Tris-buffered saline, Dako). The sections were incubated first with primary antibodies against K19 (mouse anti-human: K19-1:10; overnight, at 4° C.; PROGEN, Heidelberg, Germany;) and then with FITC-labeled goat anti-mouse (1:200 in TBS, for 45 min, RT, Jackson ImmunoResearch) immunoglobulins as secondary antibodies. Counterstaining was performed with DAPI (Boehringer Mannheim, Mannheim, Germany). The intensity of this immunostaining was quantified by ImageJ software (National Institutes of Health). The staining intensity of defined reference regions in the HF was measured and compared between control and Compound A-treated groups. The percentage of K19-positive cells in comparison to the total amount of cells in the ORS was calculated.
Statistical analysis was performed using a two-tailed Student's t-test for unpaired samples. For meta-analysis purposes, a total of six assays (each with HFs from a different female individual) were run. […] In order to avoid data distortion by individual experiments, rigid exclusion criteria were defined that allowed to exclude one individual experiment (out of 5-6) per read-out parameter. Since these exclusion criteria differed for each study parameter, different experiments (i.e. one out of 6, and one out of 5 in the case of keratin 19 analysis) were excluded for each assay parameter. […]

[1] = tested on: human scalp hair follicles; assay: Hair shaft elongation of organ-cultured hair follicles
Experimental: (§3) Details regarding tissue specimen origin used in the present example are as described in Example 2 above.
Hair shaft length measurements of HFs were performed on individual HFs using a Zeiss inverted binocular microscope with an eyepiece measuring graticule.
(§4) To evaluate apoptotic cells in colocalization with a proliferation marker Ki-67, a Ki-67/terminal dUTP nick-end labeling (TUNEL) double-staining method was used. Cryostat sections were fixed in paraformaldehyde and ethanol-acetic acid (2:1) and labeled with a digoxigenin-deoxy-UTP (ApopTag fluorescein in situ apoptosis detection kit; Intergen, Purchase, N.Y.) in the presence of terminal deoxynucleotidyl transferase, followed by incubation with a mouse anti-Ki-67 antiserum (1:20 in PBS overnight at 4 C; Dako, Glostrup, Denmark). TUNEL-positive cells were visualized by an antidigoxigenin fluorescein isothiocyanate-conjugated antibody (ApopTag kit), whereas Ki-67 was detected by a rhodamine-labeled goat antimouse antibody (Jackson ImmunoResearch, West Grove, Pa.). Negative controls were performed by omitting terminal deoxynucleotidyl transferase and the Ki-67 antibody. Counterstaining was performed with 4′,6-diamidino-2-phenylindole (DAPI) (Roche Molecular Biochemicals GmbH, Mannheim, Germany). Quantitative immunohistomorphometry was performed; Ki-67-, TUNEL-, or DAPI-positive cells were counted in a previously defined reference region of the HF matrix, and the percentage of Ki-67/TUNEL-positive cells were determined. Statistical analysis was performed using a two-tailed Student's t-test for unpaired samples. For meta-analysis purposes, a total of six assays (each with HFs from a different female individual) were run. In order to avoid data distortion by individual experiments, rigid exclusion criteria were defined that allowed to exclude one individual experiment (out of 5-6) per read-out parameter. Since these exclusion criteria differed for each study parameter, different experiments (i.e. one out of 6) were excluded for each assay parameter. […]

[2] = tested on: human scalp hair follicles; assay: HF cycle staging (anagen/catagen) of organ-cultured hair follicles; details: all concentrations, pooled data
Experimental: as §3
HF cycle staging was carried out according to previously defined morphological criteria, and the percentage of HFs in anagen and early, mid, or late catagen was determined.
To evaluate apoptotic cells in colocalization with a proliferation marker Ki-67, a Ki-67/terminal dUTP nick-end labeling (TUNEL) double-staining method was used. […] TUNEL-positive cells were visualized by an antidigoxigenin fluorescein isothiocyanate-conjugated antibody (ApopTag kit), whereas Ki-67 was detected by a rhodamine-labeled goat antimouse antibody (Jackson ImmunoResearch, West Grove, Pa.). […] Quantitative immunohistomorphometry was performed; Ki-67-, TUNEL-, or DAPI-positive cells were counted in a previously defined reference region of the HF matrix, and the percentage of Ki-67/TUNEL-positive cells were determined. […] In order to avoid data distortion by individual experiments, rigid exclusion criteria were defined that allowed to exclude one individual experiment (out of 5-6) per read-out parameter. […]

keratin K15 expression = assay: K15 quantitative immunohistochemistry in organ-cultured human scalp hair follicles; details: for Keratin-15 immunoreactivity: all concentrations tested, human anagen VI scalp HF organ culture, vs vehicle
Experimental: as §1, §2
To investigate keratin K15 expression, the tyramide signal amplification method was used as previously described (Kloepper et al., 2008). Briefly, acetone fixed cryosections were washed three times for 5 min using TNT (Tris-HCL NaCl Tween) buffer (0.1 mol/l Tris-HCl, pH 7.5; containing 0.15 mol/l NaCl and 0.05% Tween 20). Next, horseradish peroxidase was blocked by washing with 3% H2O2 in phosphate-buffered saline (PBS) for 15 min. Preincubation was performed with the incubation of avidin and biotin for 15 min and 5% goat normal serum in TNT for 30 min with washing steps in between. Mouse anti-human K15 (clone LHK15, Chemicon, Billerica, USA) was diluted in TNT and incubated overnight at 4° C. followed by a biotinylated secondary antibody goat anti-mouse (1:200 in TNT) for 45 min at RT. Next, streptavidin horseradish peroxidase (TSA kit; Perkin-Elmer, Boston, Mass., USA) was administered (1:100 in TNT) for 30 min at RT. […] The intensity of the immunostaining was quantified by ImageJ software (National Institutes of Health). The staining intensity of defined reference regions in the HF was measured and compared between control and N Compound A-treated groups. The percentage of K15-positive cells in comparison to the total amount of cells in the ORS was calculated.
Statistical analysis was performed using a two-tailed Student's t-test for unpaired samples. […] In order to avoid data distortion by individual experiments, rigid exclusion criteria were defined that allowed to exclude one individual experiment (out of 5-6) per read-out parameter. […]

[3] = tested on: human scalp hair follicles; assay: LDH measurement in supernatant of hair follicle organ culture (cytotoxicity); details: for LDH activity in the supernatant: 0.1 mM dose, day 6, pooled data
Experimental: as §3
LDH activity in the supernatant can serve as an indicator of cytotoxicity and was measured following the manufacturer's instructions (Cytotoxicity Detection Kit; Roche, Mannheim, Germany). The absorbance of the samples was measured at 490 nm using an ELISA plate-reader.
as §4, with “parameter.” for “parameter. Since these exclusion criteria differed for each study parameter, different experiments (i.e. one out of 6) were excluded for each assay parameter.”

[4] = listed as N-acetyl-(R)-(−)-3-(4-aminophenyl)-2-methoxypropionic acid

For CO[C@H](Cc1ccc(NC(C)=O)cc1)C(=O)O [Compound A, N-acetyl-(R)-(−)-3-(4-aminophenyl)-2-methoxypropionic acid], the “Keratin 19 immunoreactivity” value (K19 expression; all concentrations tested, vs vehicle) was “strongly stimulated”, the “number of K19-positive cells relative to control” value (K19 expression) was “stimulating effect” and the “number of K19-positive cells relative to control” value (K19 expression; [4]) was “increased numbers”. The hair shaft elongation ([1]; high dose (1 mM), day 6, pooled data) was “slightly, but significantly, inhibited; also recorded: inhibits”, the hair shaft elongation ([1]; high dose (1 mM), day 6, pooled data, listed as N-acetyl-(R)-(−)-3-(4-aminophenyl)-2-methoxypropionic acid) was “inhibition” and the hair shaft elongation ([1]; lower concentrations (below 1 mM)) was “did not have an effect”. For the same molecule, the “hair cycle effect (catagen induction)” value [2] was “induced catagen; also recorded: catagen-inducing effect”, the “hair cycle effect (catagen induction)” value [2, 4] was “trend toward catagen” and the Keratin-15 immunoreactivity (keratin K15 expression) was “strongly stimulated”. The Keratin-15 immunoreactivity (keratin K15 expression; [4]) was “stimulation”, the “number of K15-positive cells” value (keratin K15 expression; human scalp HF organ culture, cells in the ORS) was “did not increase” and the “LDH activity in the supernatant” value [3] was “slight increase”. For the same molecule, the “LDH activity in the supernatant” value [3, 4] was “increase” and the “Compound-associated HF toxicity” value ([3]; under assay conditions, from LDH activity) was “very low, if any”.
